From ChEMBL document CHEMBL4382195, “Discovery of Novel Topoisomerase II Inhibitors by Medicinal Chemistry Approaches” (J Med Chem, 2018)

test system: Panel NCI-60 (60 carcinoma cell lines); assay: Antiproliferative activity against human NCI60 cells after 48 hrs by SRB assay; format: functional; conditions: not given

SMILES | GI50
N[C@@H](Cc1ccc(N(CCCl)CCCl)cc1)C(=O)O | 29 µM
Cn1c(CCCC(=O)O)nc2cc(N(CCCl)CCCl)ccc21 [BENDAMUSTINE] | 70 µM
O=C(O)CCCc1ccc(N(CCCl)CCCl)cc1 [CHLORAMBUCIL] | 60 µM
COc1cc([C@@H]2c3cc4c(cc3[C@@H](O[C@@H]3O[C@@H]5CO[C@@H](C)O[C@H]5[C@H](O)[C@H]3O)[C@H]3COC(=O)[C@H]23)OCO4)cc(OC)c1O [ETOPOSIDE] | 12 µM

molecular target: DNA topoisomerase 2-beta (Homo sapiens, UniProt Q02880); assay: Poison activity at recombinant human topoisomerase 2beta using pBR322 plasmid as substrate after 30 mins by ethidium bromide staining based agarose gel electrophoresis; conditions: not given
Sequence (Q02880 whole entry): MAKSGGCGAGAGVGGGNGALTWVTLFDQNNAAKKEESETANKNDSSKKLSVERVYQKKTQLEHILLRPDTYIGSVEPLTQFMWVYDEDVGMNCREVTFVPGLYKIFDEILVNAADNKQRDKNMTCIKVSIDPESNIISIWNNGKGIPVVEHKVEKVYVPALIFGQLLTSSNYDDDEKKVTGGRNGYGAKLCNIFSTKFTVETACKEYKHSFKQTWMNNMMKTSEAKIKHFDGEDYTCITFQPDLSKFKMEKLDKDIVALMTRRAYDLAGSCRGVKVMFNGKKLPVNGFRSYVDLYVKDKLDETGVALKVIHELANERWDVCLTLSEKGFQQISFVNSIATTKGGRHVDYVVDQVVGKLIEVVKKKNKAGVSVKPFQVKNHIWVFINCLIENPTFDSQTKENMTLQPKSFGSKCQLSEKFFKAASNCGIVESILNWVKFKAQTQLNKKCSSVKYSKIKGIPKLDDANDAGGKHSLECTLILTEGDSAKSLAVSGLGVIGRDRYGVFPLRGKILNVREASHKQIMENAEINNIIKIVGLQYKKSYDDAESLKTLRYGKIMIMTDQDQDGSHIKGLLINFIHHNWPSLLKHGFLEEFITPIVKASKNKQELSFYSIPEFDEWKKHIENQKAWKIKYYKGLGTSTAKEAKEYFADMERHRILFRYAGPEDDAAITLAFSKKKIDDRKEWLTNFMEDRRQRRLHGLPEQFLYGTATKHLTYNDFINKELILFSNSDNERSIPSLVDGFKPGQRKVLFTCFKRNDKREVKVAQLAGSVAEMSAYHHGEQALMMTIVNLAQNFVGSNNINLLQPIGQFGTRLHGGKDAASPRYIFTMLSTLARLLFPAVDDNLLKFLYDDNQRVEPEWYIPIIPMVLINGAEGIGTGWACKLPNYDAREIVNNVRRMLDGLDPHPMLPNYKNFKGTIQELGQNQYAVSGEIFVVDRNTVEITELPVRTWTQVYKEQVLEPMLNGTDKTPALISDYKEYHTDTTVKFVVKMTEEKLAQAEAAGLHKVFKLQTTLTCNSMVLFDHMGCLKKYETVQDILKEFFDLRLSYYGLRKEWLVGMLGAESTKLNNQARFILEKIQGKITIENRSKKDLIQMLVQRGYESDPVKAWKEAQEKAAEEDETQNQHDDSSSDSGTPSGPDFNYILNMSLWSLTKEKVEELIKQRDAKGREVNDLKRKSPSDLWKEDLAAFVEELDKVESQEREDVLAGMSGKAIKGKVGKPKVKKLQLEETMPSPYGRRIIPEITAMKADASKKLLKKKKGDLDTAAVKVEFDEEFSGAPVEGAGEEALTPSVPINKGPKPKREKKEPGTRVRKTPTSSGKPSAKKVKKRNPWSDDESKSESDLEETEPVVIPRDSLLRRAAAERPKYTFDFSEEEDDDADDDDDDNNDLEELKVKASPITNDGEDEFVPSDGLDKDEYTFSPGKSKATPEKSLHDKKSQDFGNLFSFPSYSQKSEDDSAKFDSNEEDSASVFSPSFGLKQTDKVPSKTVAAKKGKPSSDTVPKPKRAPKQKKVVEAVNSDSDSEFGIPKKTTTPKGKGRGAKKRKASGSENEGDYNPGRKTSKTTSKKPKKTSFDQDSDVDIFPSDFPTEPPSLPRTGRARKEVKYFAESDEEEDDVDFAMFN

SMILES | IC50
CN(C)CCCNc1ccc(NCCCN(C)C)c2c1C(=O)c1ccc(C(=O)Nc3ccc(S(C)(=O)=O)cc3)cc1C2=O | 4.34 to 6.71 µM
CN(C)CCNc1ccc(NCCN(C)C)c2c1C(=O)c1ccc(C(=O)Nc3ccc(S(C)(=O)=O)cc3)cc1C2=O | 5.25 to 9.31 µM
COc1cc(S(C)(=O)=O)ccc1NC(=O)c1ccc2c(c1)C(=O)c1c(NCCCN(C)C)ccc(NCCCN(C)C)c1C2=O | 1.06 to 3.33 µM
O=C1c2ccccc2C(=O)c2c(NCCNCCO)ccc(NCCNCCO)c21 [AMETANTRONE] | 0.03 to 0.99 µM

molecular target: DNA topoisomerase 2-alpha (Homo sapiens, UniProt P11388); assay: Inhibition of recombinant human topoisomerase 2alpha using supercoiled pNO1 plasmid as substrate after 30 mins by SYBR-GOLD staining based fluorimetric analysis; conditions: not given
Sequence (P11388 whole entry): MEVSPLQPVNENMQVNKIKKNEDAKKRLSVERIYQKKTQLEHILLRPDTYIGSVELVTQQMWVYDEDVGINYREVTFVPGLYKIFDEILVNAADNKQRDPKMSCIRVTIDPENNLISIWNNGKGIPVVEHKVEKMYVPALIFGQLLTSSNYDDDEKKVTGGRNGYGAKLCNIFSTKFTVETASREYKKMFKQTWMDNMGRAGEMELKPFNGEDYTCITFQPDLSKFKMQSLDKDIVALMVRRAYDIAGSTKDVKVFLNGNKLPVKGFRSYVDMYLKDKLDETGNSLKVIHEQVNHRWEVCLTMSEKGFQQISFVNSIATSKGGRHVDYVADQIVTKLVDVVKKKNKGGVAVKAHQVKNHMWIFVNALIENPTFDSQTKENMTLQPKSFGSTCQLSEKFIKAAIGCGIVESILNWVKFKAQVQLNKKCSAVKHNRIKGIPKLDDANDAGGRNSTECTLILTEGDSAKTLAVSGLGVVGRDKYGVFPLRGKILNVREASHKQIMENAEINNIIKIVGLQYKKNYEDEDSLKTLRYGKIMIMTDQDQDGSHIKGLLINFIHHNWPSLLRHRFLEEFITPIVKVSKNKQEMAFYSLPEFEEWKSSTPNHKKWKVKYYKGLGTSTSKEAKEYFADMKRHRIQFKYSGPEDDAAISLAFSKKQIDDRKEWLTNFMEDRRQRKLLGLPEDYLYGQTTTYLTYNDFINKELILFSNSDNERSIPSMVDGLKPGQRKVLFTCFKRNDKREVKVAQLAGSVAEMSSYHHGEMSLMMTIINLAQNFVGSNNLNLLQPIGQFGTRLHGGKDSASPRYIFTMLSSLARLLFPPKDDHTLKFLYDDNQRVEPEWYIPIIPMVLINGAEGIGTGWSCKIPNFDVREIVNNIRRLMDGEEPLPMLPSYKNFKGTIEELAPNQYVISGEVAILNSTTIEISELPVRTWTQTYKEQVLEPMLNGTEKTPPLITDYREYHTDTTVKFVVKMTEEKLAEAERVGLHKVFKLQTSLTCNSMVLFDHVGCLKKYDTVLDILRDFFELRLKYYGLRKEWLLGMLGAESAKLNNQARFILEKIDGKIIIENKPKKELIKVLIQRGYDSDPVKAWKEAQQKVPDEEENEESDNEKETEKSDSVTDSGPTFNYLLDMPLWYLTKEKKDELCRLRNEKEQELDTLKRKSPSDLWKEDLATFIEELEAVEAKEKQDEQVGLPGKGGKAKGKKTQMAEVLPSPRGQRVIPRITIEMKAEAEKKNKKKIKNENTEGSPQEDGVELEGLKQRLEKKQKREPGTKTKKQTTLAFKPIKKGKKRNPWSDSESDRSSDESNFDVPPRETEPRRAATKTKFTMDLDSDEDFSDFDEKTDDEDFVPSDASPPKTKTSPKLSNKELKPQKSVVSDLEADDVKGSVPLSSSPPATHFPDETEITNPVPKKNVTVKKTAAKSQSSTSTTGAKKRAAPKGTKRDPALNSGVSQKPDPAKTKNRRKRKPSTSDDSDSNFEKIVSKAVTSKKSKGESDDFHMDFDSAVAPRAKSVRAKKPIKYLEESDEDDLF

SMILES | IC50
O=C(O)c1ccc(Nc2ncnc3nc[nH]c23)cc1 | 44 µM
O=C(O)c1cccc(Nc2ncnc3[nH]cnc23)c1 | 65 µM

test system: MCF7; assay: Antiproliferative activity against human MCF7 cells after 24 hrs by MTT assay; format: functional, cell-based; conditions: MCF7, 24 h

SMILES | IC50
Oc1cccc(-c2nnc(Nc3cccc(F)c3)s2)c1 | 140 µM
Fc1ccc(Nc2nnc(-c3ccc(Cl)cc3Cl)s2)cc1 | 160 µM
Clc1ccc(OCc2nnc(Nc3ccc(Br)cc3)s2)c(Cl)c1 | > 200 µM
Fc1cccc(Nc2nnc(-c3cccc(Cl)c3)s2)c1 | > 200 µM
Clc1ccc(-c2nnc(Nc3ccc(Br)cc3)s2)c(Cl)c1 | 120 µM
Fc1ccc(Nc2nnc(COc3ccc(Cl)cc3Cl)s2)cc1 | > 200 µM

test system: MDA-MB-231; assay: Antiproliferative activity against human MDA-MB-231 cells after 24 hrs by MTT assay; format: functional, cell-based; conditions: MDA-MB-231, 24 h

SMILES | IC50
Oc1cccc(-c2nnc(Nc3cccc(F)c3)s2)c1 | 170 µM
Fc1ccc(Nc2nnc(-c3ccc(Cl)cc3Cl)s2)cc1 | 130 µM
Clc1ccc(OCc2nnc(Nc3ccc(Br)cc3)s2)c(Cl)c1 | > 200 µM
Fc1cccc(Nc2nnc(-c3cccc(Cl)c3)s2)c1 | > 200 µM
Clc1ccc(-c2nnc(Nc3ccc(Br)cc3)s2)c(Cl)c1 | 70 µM
Fc1ccc(Nc2nnc(COc3ccc(Cl)cc3Cl)s2)cc1 | > 200 µM
